From PubChem BioAssay (NCI)
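These data come from cells grown in 96-well plates and exposed to compound for 48 hours at five concentrations. TGI: total growth inhibition.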

Key:
Assay in all cases: inhibition of tumour cell growth, NCI panel, 48 h
786-0 renal = tested on: 786-0 renal
A498 renal = tested on: A498 renal
A549 NSCLC = tested on: A549 NSCLC
ACHN renal = tested on: ACHN renal
BT-549 breast = tested on: BT-549 breast
CAKI-1 renal = tested on: CAKI-1 renal
CCRF-CEM leukemia = tested on: CCRF-CEM leukemia
COLO 205 colon = tested on: COLO 205 colon
DU-145 prostate = tested on: DU-145 prostate
EKVX NSCLC = tested on: EKVX NSCLC
HCC-2998 colon = tested on: HCC-2998 colon
HCT-116 colon = tested on: HCT-116 colon
HCT-15 colon = tested on: HCT-15 colon
HOP-62 NSCLC = tested on: HOP-62 NSCLC
HOP-92 NSCLC = tested on: HOP-92 NSCLC
HS 578T breast = tested on: HS 578T breast
HT29 colon = tested on: HT29 colon
IGROV1 ovarian = tested on: IGROV1 ovarian
K-562 leukemia = tested on: K-562 leukemia
KM12 colon = tested on: KM12 colon
LOX IMVI melanoma = tested on: LOX IMVI melanoma
M14 melanoma = tested on: M14 melanoma
MALME-3M melanoma = tested on: MALME-3M melanoma
MCF7 breast = tested on: MCF7 breast
MDA-MB-231 breast = tested on: MDA-MB-231 breast
MDA-MB-435 = tested on: MDA-MB-435
MDA-N = tested on: MDA-N
MOLT-4 leukemia = tested on: MOLT-4 leukemia
NCI-H226 lung = tested on: NCI-H226 lung
NCI-H23 lung = tested on: NCI-H23 lung
NCI-H460 lung = tested on: NCI-H460 lung
NCI-H522 lung = tested on: NCI-H522 lung
NCI/ADR-RES ovarian = tested on: NCI/ADR-RES ovarian
OVCAR-3 ovarian = tested on: OVCAR-3 ovarian
OVCAR-4 ovarian = tested on: OVCAR-4 ovarian
OVCAR-5 ovarian = tested on: OVCAR-5 ovarian
OVCAR-8 ovarian = tested on: OVCAR-8 ovarian
PC-3 prostate = tested on: PC-3 prostate
RPMI-8226 leukemia = tested on: RPMI-8226 leukemia
RXF 393 renal = tested on: RXF 393 renal
SF-268 CNS = tested on: SF-268 CNS
SF-295 CNS = tested on: SF-295 CNS
SF-539 CNS = tested on: SF-539 CNS
SK-MEL-2 melanoma = tested on: SK-MEL-2 melanoma
SK-MEL-28 melanoma = tested on: SK-MEL-28 melanoma
SK-MEL-5 melanoma = tested on: SK-MEL-5 melanoma
SK-OV-3 ovarian = tested on: SK-OV-3 ovarian
SN12C renal = tested on: SN12C renal
SNB-19 CNS = tested on: SNB-19 CNS
SNB-75 CNS = tested on: SNB-75 CNS
SR leukemia = tested on: SR leukemia
SW-620 colon = tested on: SW-620 colon
T-47D breast = tested on: T-47D breast
TK-10 renal = tested on: TK-10 renal
U251 CNS = tested on: U251 CNS
UACC-257 melanoma = tested on: UACC-257 melanoma
UACC-62 melanoma = tested on: UACC-62 melanoma
UO-31 renal = tested on: UO-31 renal
HL-60(TB) leukemia = tested on: HL-60(TB) leukemia

## Nc1nc(N)c2ncn(-c3ccc(Br)cc3)c2n1
786-0 renal
  TGI: > 100 µM
A498 renal
  TGI: > 61.9 µM
A549 NSCLC
  TGI: > 100 µM
ACHN renal
  TGI: > 52.8 µM
BT-549 breast
  TGI: > 100 µM
CAKI-1 renal
  TGI: > 45.3 µM
CCRF-CEM leukemia
  TGI: 34.7 µM
COLO 205 colon
  TGI: > 100 µM
DU-145 prostate
  TGI: > 100 µM
EKVX NSCLC
  TGI: 88.4 µM
HCC-2998 colon
  TGI: > 100 µM
HCT-116 colon
  TGI: > 100 µM
HCT-15 colon
  TGI: > 100 µM
HOP-62 NSCLC
  TGI: > 59.8 µM
HOP-92 NSCLC
  TGI: > 38.1 µM
HS 578T breast
  TGI: 25.3 µM
HT29 colon
  TGI: > 45.6 µM
IGROV1 ovarian
  TGI: 41.5 µM
K-562 leukemia
  TGI: 38.3 µM
KM12 colon
  TGI: > 45.7 µM
LOX IMVI melanoma
  TGI: > 100 µM
M14 melanoma
  TGI: > 69.2 µM
MALME-3M melanoma
  TGI: > 44.9 µM
MCF7 breast
  TGI: > 57.1 µM
MDA-MB-231 breast
  TGI: > 86.1 µM
MDA-MB-435
  TGI: > 100 µM
MDA-N
  TGI: > 100 µM
MOLT-4 leukemia
  TGI: 37.3 µM
NCI-H226 lung
  TGI: > 100 µM
NCI-H23 lung
  TGI: > 93.2 µM
NCI-H460 lung
  TGI: > 100 µM
NCI-H522 lung
  TGI: > 42.5 µM
NCI/ADR-RES ovarian
  TGI: 50.8 µM
OVCAR-3 ovarian
  TGI: > 64 µM
OVCAR-4 ovarian
  TGI: > 100 µM
OVCAR-5 ovarian
  TGI: > 73.1 µM
OVCAR-8 ovarian
  TGI: > 55.7 µM
PC-3 prostate
  TGI: > 65 µM
RPMI-8226 leukemia
  TGI: > 56.1 µM
RXF 393 renal
  TGI: > 78.6 µM
SF-268 CNS
  TGI: > 63.8 µM
SF-295 CNS
  TGI: > 100 µM
SF-539 CNS
  TGI: 46.5 µM
SK-MEL-2 melanoma
  TGI: 41.5 µM
SK-MEL-28 melanoma
  TGI: > 100 µM
SK-MEL-5 melanoma
  TGI: > 100 µM
SK-OV-3 ovarian
  TGI: 73.9 µM
SN12C renal
  TGI: 75.6 µM
SNB-19 CNS
  TGI: > 100 µM
SNB-75 CNS
  TGI: 31.2 µM
SR leukemia
  TGI: 3.2 µM
SW-620 colon
  TGI: > 100 µM
T-47D breast
  TGI: > 100 µM
TK-10 renal
  TGI: > 100 µM
U251 CNS
  TGI: > 100 µM
UACC-257 melanoma
  TGI: > 100 µM
UACC-62 melanoma
  TGI: > 66.8 µM
UO-31 renal
  TGI: > 50.6 µM

## COC(=O)Cc1c(-c2[nH]c3ccccc3c2CC(=O)OC)[nH]c2ccccc12
786-0 renal
  TGI: > 100 µM
A498 renal
  TGI: > 100 µM
A549 NSCLC
  TGI: > 100 µM
ACHN renal
  TGI: > 100 µM
BT-549 breast
  TGI: > 100 µM
CAKI-1 renal
  TGI: > 100 µM
CCRF-CEM leukemia
  TGI: > 100 µM
COLO 205 colon
  TGI: > 100 µM
DU-145 prostate
  TGI: > 100 µM
EKVX NSCLC
  TGI: > 100 µM
HCC-2998 colon
  TGI: > 100 µM
HCT-116 colon
  TGI: > 100 µM
HCT-15 colon
  TGI: > 100 µM
HOP-62 NSCLC
  TGI: > 100 µM
HOP-92 NSCLC
  TGI: > 100 µM
HS 578T breast
  TGI: > 100 µM
HT29 colon
  TGI: > 100 µM
IGROV1 ovarian
  TGI: > 100 µM
K-562 leukemia
  TGI: > 100 µM
KM12 colon
  TGI: > 100 µM
LOX IMVI melanoma
  TGI: > 100 µM
M14 melanoma
  TGI: > 100 µM
MALME-3M melanoma
  TGI: > 100 µM
MCF7 breast
  TGI: > 100 µM
MDA-MB-231 breast
  TGI: > 100 µM
MDA-MB-435
  TGI: > 100 µM
MDA-N
  TGI: > 100 µM
MOLT-4 leukemia
  TGI: > 100 µM
NCI-H226 lung
  TGI: > 100 µM
NCI-H23 lung
  TGI: > 100 µM
NCI-H460 lung
  TGI: > 100 µM
NCI-H522 lung
  TGI: > 100 µM
NCI/ADR-RES ovarian
  TGI: > 100 µM
OVCAR-3 ovarian
  TGI: > 41.2 µM
OVCAR-4 ovarian
  TGI: > 100 µM
OVCAR-5 ovarian
  TGI: > 100 µM
OVCAR-8 ovarian
  TGI: > 100 µM
PC-3 prostate
  TGI: > 100 µM
RPMI-8226 leukemia
  TGI: > 100 µM
RXF 393 renal
  TGI: > 100 µM
SF-268 CNS
  TGI: > 100 µM
SF-295 CNS
  TGI: > 100 µM
SF-539 CNS
  TGI: > 100 µM
SK-MEL-2 melanoma
  TGI: > 100 µM
SK-MEL-28 melanoma
  TGI: > 100 µM
SK-MEL-5 melanoma
  TGI: > 100 µM
SK-OV-3 ovarian
  TGI: > 100 µM
SN12C renal
  TGI: > 100 µM
SNB-19 CNS
  TGI: > 100 µM
SNB-75 CNS
  TGI: > 100 µM
SR leukemia
  TGI: > 100 µM
SW-620 colon
  TGI: > 100 µM
T-47D breast
  TGI: > 100 µM
TK-10 renal
  TGI: > 100 µM
U251 CNS
  TGI: > 100 µM
UACC-257 melanoma
  TGI: > 100 µM
UACC-62 melanoma
  TGI: > 100 µM
UO-31 renal
  TGI: > 100 µM

## CC1(c2ccccc2)CCN(C2CC2)CO1 (stereo unspecified)
786-0 renal
  TGI: 29.9 µM
A549 NSCLC
  TGI: > 100 µM
ACHN renal
  TGI: 31.7 µM
BT-549 breast
  TGI: 32.3 µM
CAKI-1 renal
  TGI: 36.5 µM
CCRF-CEM leukemia
  TGI: > 100 µM
COLO 205 colon
  TGI: 39.8 µM
DU-145 prostate
  TGI: > 100 µM
EKVX NSCLC
  TGI: 41.4 µM
HCC-2998 colon
  TGI: 30.8 µM
HCT-116 colon
  TGI: 40.9 µM
HCT-15 colon
  TGI: 30.1 µM
HL-60(TB) leukemia
  TGI: > 100 µM
HOP-62 NSCLC
  TGI: > 100 µM
HS 578T breast
  TGI: 44 µM
HT29 colon
  TGI: 35.7 µM
IGROV1 ovarian
  TGI: 40.2 µM
K-562 leukemia
  TGI: > 100 µM
KM12 colon
  TGI: 30.4 µM
LOX IMVI melanoma
  TGI: 39.9 µM
M14 melanoma
  TGI: 31 µM
MALME-3M melanoma
  TGI: 34.4 µM
MCF7 breast
  TGI: 32 µM
MDA-MB-231 breast
  TGI: 38.4 µM
MDA-MB-435
  TGI: > 100 µM
MDA-N
  TGI: 31 µM
MOLT-4 leukemia
  TGI: 43.5 µM
NCI-H226 lung
  TGI: > 100 µM
NCI-H23 lung
  TGI: 85.2 µM
NCI-H460 lung
  TGI: 28.1 µM
NCI/ADR-RES ovarian
  TGI: 46.6 µM
OVCAR-3 ovarian
  TGI: 31.7 µM
OVCAR-4 ovarian
  TGI: 33.9 µM
OVCAR-5 ovarian
  TGI: 33.3 µM
OVCAR-8 ovarian
  TGI: > 100 µM
PC-3 prostate
  TGI: > 100 µM
RPMI-8226 leukemia
  TGI: > 100 µM
RXF 393 renal
  TGI: 69.3 µM
SF-268 CNS
  TGI: 35.4 µM
SF-295 CNS
  TGI: > 100 µM
SK-MEL-2 melanoma
  TGI: > 100 µM
SK-MEL-28 melanoma
  TGI: 37.5 µM
SK-MEL-5 melanoma
  TGI: > 100 µM
SK-OV-3 ovarian
  TGI: > 100 µM
SN12C renal
  TGI: 36.6 µM
SNB-19 CNS
  TGI: > 100 µM
SNB-75 CNS
  TGI: > 100 µM
SR leukemia
  TGI: 65.5 µM
SW-620 colon
  TGI: 36.2 µM
T-47D breast
  TGI: 45.1 µM
TK-10 renal
  TGI: 26.7 µM
U251 CNS
  TGI: > 100 µM
UACC-257 melanoma
  TGI: 47.8 µM
UACC-62 melanoma
  TGI: 32 µM
UO-31 renal
  TGI: 35.8 µM
